Source: patent US11117891B2, “Isoquinolin and naphthydrin compounds” (Eli Lilly and Company, priority 2017, dated 2021)

Assays:
[1] = biological target: recombinant human ASK1 (hASK1) catalytic domain (Homo sapiens (Human), UniProt Q99683); test: ASK1 enzymatic assay (ADP-Glo Kinase Assay); format: biochemical; conditions: for IC50: ADP production, MKK6 300 nM substrate, ATP 100 uM, mean ± standard deviation; for Efficacy (%): hASK1 enzymatic assay, relative to standard inhibitor (100%) and DMSO vehicle (0%)
Sequence of recombinant human ASK1 (hASK1) catalytic domain (Q99683 680-938): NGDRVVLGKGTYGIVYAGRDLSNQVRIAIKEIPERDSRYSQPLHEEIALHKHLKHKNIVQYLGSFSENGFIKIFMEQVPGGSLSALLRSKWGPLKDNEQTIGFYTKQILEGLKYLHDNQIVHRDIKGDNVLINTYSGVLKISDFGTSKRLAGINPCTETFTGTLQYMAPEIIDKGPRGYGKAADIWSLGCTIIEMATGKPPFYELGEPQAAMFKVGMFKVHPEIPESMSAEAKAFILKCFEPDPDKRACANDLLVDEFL
From the text: The purpose of this assay is to determine the effect of ASK1 inhibitors on the production of ADP by ASK1. The recombinant human ASK1 (hASK1) catalytic domain tagged with Glutathione S-transferase is used, and histidine-tagged full-length human MAP kinase kinase 6 (MKK6) and ATP are the substrate and cofactor, respectively.
The assay is done using an ADP-Glo™ Kinase Assay Kit (Promega, Catalog #V9102) according to the manufacturer's protocol with the following modifications. Briefly, hASK1 (0.25 nM) and MKK6 (300 nM) in a buffer (10 mM MOPS pH 7.0; 10 mM Mg-Acetate; 1 mM DTT; 0.025% NP-40; 0.05% BSA; 1.5% glycerol) are incubated with ASK1 inhibitors at varying concentrations ranging from 10.00 uM to 0.17 nM for 15 minutes, followed by incubation with ATP (100 uM) for 30 minutes at room temperature. ADP-Glo™ Reagent is added to terminate the kinase reaction and deplete the remaining ATP. The Kinase Detection Reagent is then added to convert ADP to ATP. The newly synthesized ATP is measured using a luciferase/luciferin reaction, and the luminescence determined by Envision (PerkinElmer). The luminescence intensities are analyzed by GeneData, and fit to a 4 parameter dose response-inhibitor logistics curve to determine IC50 values, using the effects of 5-(4-cyclopropyl-1H-imidazol-1-yl)-2-fluoro-4-methyl-N-{6-[4-(propan-2-yl)-4H-1,2,4-triazol-3-yl]pyridin-2-yl}benzamide as a standard and DMSO vehicle for 100% and 0% inhibition, respectively.

human ASK1 = human ASK1 (Homo sapiens (Human), UniProt Q99683); test: ASK1 autophosphorylation (Thr838) assay in HEK293 cells overexpressing human ASK1; format: cell-based; conditions: for IC50: H2O2-stimulated (1 mM, 10 min) ASK1 autophosphorylation at Thr838, HEK293 cells, HTRF, mean ± standard deviation, read-out: HEK pASK1 IC50; for Efficacy (%): HEK pASK1 assay, relative to standard inhibitor (100%) and DMSO vehicle (0%)
Sequence of human ASK1 (Q99683 whole entry): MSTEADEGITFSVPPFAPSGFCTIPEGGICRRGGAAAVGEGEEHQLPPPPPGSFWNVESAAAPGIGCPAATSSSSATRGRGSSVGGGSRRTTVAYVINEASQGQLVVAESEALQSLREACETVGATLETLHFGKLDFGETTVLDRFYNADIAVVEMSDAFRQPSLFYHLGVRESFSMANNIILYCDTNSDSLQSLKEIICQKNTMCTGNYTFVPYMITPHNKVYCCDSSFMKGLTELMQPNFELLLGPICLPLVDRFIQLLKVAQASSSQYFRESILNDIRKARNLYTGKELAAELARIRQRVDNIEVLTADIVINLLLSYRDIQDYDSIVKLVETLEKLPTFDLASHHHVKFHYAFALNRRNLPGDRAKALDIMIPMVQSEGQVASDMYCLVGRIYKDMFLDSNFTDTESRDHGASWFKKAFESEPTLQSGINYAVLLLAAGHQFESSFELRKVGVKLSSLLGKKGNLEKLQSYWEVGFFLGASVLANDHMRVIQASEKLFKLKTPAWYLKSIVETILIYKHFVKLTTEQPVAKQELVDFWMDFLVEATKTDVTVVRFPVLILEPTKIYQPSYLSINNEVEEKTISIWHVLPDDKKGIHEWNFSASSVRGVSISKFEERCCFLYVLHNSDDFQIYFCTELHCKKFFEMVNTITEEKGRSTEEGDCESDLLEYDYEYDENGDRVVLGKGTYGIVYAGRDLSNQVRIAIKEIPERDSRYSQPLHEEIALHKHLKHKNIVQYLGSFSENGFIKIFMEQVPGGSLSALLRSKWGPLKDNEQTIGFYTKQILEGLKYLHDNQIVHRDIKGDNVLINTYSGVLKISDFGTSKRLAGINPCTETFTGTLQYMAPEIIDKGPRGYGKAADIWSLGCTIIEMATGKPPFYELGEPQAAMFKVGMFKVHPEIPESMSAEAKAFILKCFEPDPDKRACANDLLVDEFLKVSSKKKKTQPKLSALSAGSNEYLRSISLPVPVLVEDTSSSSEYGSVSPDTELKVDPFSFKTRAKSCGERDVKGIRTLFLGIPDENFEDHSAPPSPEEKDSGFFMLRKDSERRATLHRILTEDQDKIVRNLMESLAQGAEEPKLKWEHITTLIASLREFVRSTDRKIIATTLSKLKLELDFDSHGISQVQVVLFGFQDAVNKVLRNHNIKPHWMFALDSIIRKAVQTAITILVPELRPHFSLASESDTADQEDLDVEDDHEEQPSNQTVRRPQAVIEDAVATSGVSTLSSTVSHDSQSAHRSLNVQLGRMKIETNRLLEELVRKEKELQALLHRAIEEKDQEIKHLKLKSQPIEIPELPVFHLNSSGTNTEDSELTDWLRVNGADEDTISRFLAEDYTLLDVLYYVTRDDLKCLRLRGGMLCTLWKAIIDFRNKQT

IC50 [1] | Efficacy (%) [1] | IC50 (human ASK1) | Efficacy (%) (human ASK1) | SMILES
3.6 ± 0.8 nM | 101% | 38.6 ± 2.4 nM | 107% | Cc1cc2c(cc1-c1cnn(C(C)C)c1)C(=O)N(c1cccc(-c3nncn3C(C)C)n1)CC2 [Example 1, 7-(1-Isopropylpyrazol-4-yl)-2-[6-(4-isopropyl-1,2,4-triazol-3-yl)-2-pyridyl]-6-methyl-3,4-dihydroisoquinolin-1-one]
1.8 ± 0.4 nM | 100.5% | 13.1 ± 2.8 nM | 103% | Cc1cc2c(cc1-n1cnc(C3CC3)c1)C(=O)N(c1cccc(-c3nncn3C(C)C)n1)CC2 [Example 2, 7-(4-Cyclopropylimidazol-1-yl)-2-[6-(4-isopropyl-1,2,4-triazol-3-yl)-2-pyridyl]-6-methyl-3,4-dihydroisoquinolin-1-one]
3.8 ± 0.9 nM | 100.1% | 31.5 ± 6.6 nM | 107% | CC(C)n1cnnc1-c1cccc(N2CCc3ncc(-n4cnc(C5CC5)c4)cc3C2=O)n1.Cl [Example 3, 3-(4-Cyclopropylimidazol-1-yl)-6-[6-(4-isopropyl-1,2,4-triazol-3-yl)-2-pyridyl]-7,8-dihydro-1,6-naphthyridin-5-one; hydrochloride]
4.2 ± 0.8 nM | 99.8% | 41.9 ± 0.5 nM | 105% | CC(C)n1cc(-c2cnc3c(c2)C(=O)N(c2cccc(-c4nncn4C(C)C)n2)CC3)cn1 [Example 4, 3-(1-Isopropylpyrazol-4-yl)-6-[6-(4-isopropyl-1,2,4-triazol-3-yl)-2-pyridyl]-7,8-dihydro-1,6-naphthyridin-5-one]
